PMC10215302 (Antibiotics, 2023)
Where two headings read alike, the source gives them in different places.

How the values were obtained:
S. aureus RN4220 [1] = test system: S. aureus RN4220
S. aureus SA0085 [2] = test system: S. aureus SA0085
S. aureus SA0736 [3] = test: microbe, parasite or virus in culture; settings: Staphylococcus aureus
S. aureus SA0077 [4] = test: microbe, parasite or virus in culture; settings: Staphylococcus aureus
S. aureus SA0085 [5] = test: microbe, parasite or virus in culture; settings: Staphylococcus aureus
S. aureus ATCC 29213 [6] = test: microbe, parasite or virus in culture; settings: Staphylococcus aureus
S. aureus RN4220 [7] = test: microbe, parasite or virus in culture; settings: Staphylococcus aureus, RN4220, read-out: MIC values
S. aureus SA0422 [8] = test: microbe, parasite or virus in culture; settings: Staphylococcus aureus
S. aureus SA0422 [9] = test system: S. aureus SA0422
[10] = test system: S. aureus derivative strains
S. aureus SA0077 [11] = test system: S. aureus SA0077
S. aureus ATCC 29213 [12] = test system: S. aureus ATCC 29213
S. aureus SA0736 [13] = test system: S. aureus SA0736
[14] = test system: S. aureus derivative strains; type: cell-based, Staphylococcus aureus; settings: AUC of tested strain / AUC of S. aureus Mu50
[15] = Table S1: RN4220 ∆ (strain with deletion in SACOL1927)
[16] = SA0736, read-out: MIC values, Table S1: SA0736 DAP-Y (40 passages on daptomycin, yellow colonies)
[17] = SA0077, read-out: MIC values, Table S1: SA0077 Abf (passages on antibiotic-free media)
[18] = SA0077, read-out: MIC values, Table S1: SA0077 DAP (derivative after 40 passages on daptomycin)
[19] = SA0077, read-out: MIC values, Table S1: SA0077 VAN (derivative after 40 passages on vancomycin)
[20] = SA0085, read-out: MIC values, Table S1: SA0085 Abf (passages on antibiotic-free media)
[21] = SA0085, read-out: MIC values, Table S1: SA0085 VAN (derivative after 40 passages on vancomycin)
[22] = ATCC29213, read-out: MIC values
[23] = SA0422, read-out: MIC values, Table S1: SA0422 DAP (derivative after 40 passages on daptomycin)
[24] = SA0422, read-out: MIC values, Table S1: SA0422 VAN (derivative after 40 passages on vancomycin)
[25] = SA0736, read-out: MIC values, Table S1: SA0736 VAN (derivative after 40 passages on vancomycin)
[26] = ATCC29213, read-out: MIC values, Table S1: ATCC 29213 DAP (derivative after 40 passages on daptomycin)

Cc1onc(-c2ccccc2)c1C(=O)N[C@@H]1C(=O)N2[C@@H]1SC(C)(C)[C@@H]2C(=O)O [Oxacillin]
1 µg/mL: MIC after 40 passages in antibiotic-free media (S. aureus SA0085 [2]; SA0085, after 40 passages in antibiotic-free media (SCCmec excision)) | MIC (S. aureus SA0085 [5]; [20])
2 µg/mL: MIC (S. aureus SA0422 [8]; [23])
< 0.5 µg/mL: MIC values (S. aureus RN4220 [1]; [15]) | MIC (S. aureus ATCC 29213 [6]; [22]) | MIC (S. aureus RN4220 [7])
128 µg/mL: MIC (S. aureus SA0077 [4]; [17])
512 µg/mL: MIC (S. aureus SA0077 [4]; SA0077, read-out: MIC values) | MIC (S. aureus SA0085 [5]; SA0085, read-out: MIC before passaging, SA0085, before passaging in antibiotic-free media) | MIC (S. aureus SA0422 [8]; SA0422, read-out: MIC values)
32 µg/mL: MIC (S. aureus SA0077 [4]; [19]) | MIC (S. aureus SA0085 [5]; [21])
256 µg/mL: MIC (S. aureus SA0077 [4]; [18]) | MIC (S. aureus SA0085 [5]; SA0085, read-out: MIC values) | MIC (S. aureus SA0422 [8]; [24])
64 µg/mL: MIC (S. aureus SA0736 [3]; SA0736, read-out: MIC values)
16 µg/mL: MIC (S. aureus SA0736 [3]; [16])

CCO/N=C(\C(=O)N[C@@H]1C(=O)N2C(C(=O)[O-])=C(Sc3nc(-c4cc[n+](C)cc4)cs3)CS[C@H]12)c1nsc(N)n1 [Ceftaroline]
0.25 µg/mL: MIC (S. aureus ATCC 29213 [6]; [26])
0.125 µg/mL: MIC (S. aureus SA0085 [5]; [21]) | MIC (S. aureus ATCC 29213 [6]; [22])
0.5 µg/mL: MIC values (S. aureus RN4220 [1]; [15]) | MIC (S. aureus SA0736 [3]; SA0736, read-out: MIC values, Table S1: SA0736 DAP-W (40 passages on daptomycin, white colonies)) | MIC (S. aureus SA0736 [3]; [16]) | MIC (S. aureus SA0736 [3]; [25]) | MIC (S. aureus SA0077 [4]; [18]) | MIC (S. aureus SA0085 [5]; [20]) | MIC (S. aureus RN4220 [7]) | MIC (S. aureus SA0422 [8]; [23])
2 µg/mL: MIC (S. aureus SA0422 [8]; SA0422, read-out: MIC values)
1 µg/mL: MIC (S. aureus SA0736 [3]; SA0736, read-out: MIC values) | MIC (S. aureus SA0077 [4]; SA0077, read-out: MIC values) | MIC (S. aureus SA0085 [5]; SA0085, read-out: MIC values) | MIC (S. aureus SA0422 [8]; [24])

CO[C@@]1(NC(=O)Cc2cccs2)C(=O)N2C(C(=O)O)=C(COC(N)=O)CS[C@@H]21 [Cefoxitin]
8 µg/mL: MIC (S. aureus SA0736 [3]; [16])
2 µg/mL: MIC (S. aureus ATCC 29213 [6]; [26])
4 µg/mL: MIC values (S. aureus RN4220 [1]; [15]) | MIC (S. aureus SA0085 [5]; [20]) | MIC (S. aureus SA0085 [5]; [21]) | MIC (S. aureus ATCC 29213 [6]; [22]) | MIC (S. aureus RN4220 [7])
256 µg/mL: MIC (S. aureus SA0077 [4]; SA0077, read-out: MIC values) | MIC (S. aureus SA0085 [5]; SA0085, read-out: MIC values) | MIC (S. aureus SA0422 [8]; SA0422, read-out: MIC values)
64 µg/mL: MIC (S. aureus SA0736 [3]; SA0736, read-out: MIC values) | MIC (S. aureus SA0077 [4]; [17]) | MIC (S. aureus SA0422 [8]; [23])
128 µg/mL: MIC (S. aureus SA0736 [3]; [25]) | MIC (S. aureus SA0077 [4]; [18]) | MIC (S. aureus SA0077 [4]; [19])

vancomycin
4 to 8 µg/mL: MICs of derivative strains at the end of selection with vancomycin ([10]; derivative strains, end of vancomycin selection)
4 µg/mL: MIC (S. aureus SA0085 [2]; SA0085, selecting agent DAP, passage 40) | MIC (S. aureus SA0085 [2]; SA0085, selecting agent VAN, passage 5) | MIC (S. aureus SA0085 [2]; SA0085, selecting agent VAN, passage 20) | MIC (S. aureus SA0422 [9]; SA0422, selecting agent VAN, passage 20) | MIC (S. aureus SA0422 [9]; SA0422, selecting agent VAN, passage 40) | MIC (S. aureus SA0077 [11]; SA0077, selecting agent DAP, passage 20) | MIC (S. aureus SA0077 [11]; SA0077, selecting agent DAP, passage 40) | MIC (S. aureus SA0077 [11]; SA0077, selecting agent VAN, passage 5) | MIC (S. aureus ATCC 29213 [12]; ATCC 29213, selecting agent DAP, passage 40) | MIC (S. aureus SA0736 [13]; SA0736, selecting agent DAP, passage 20) | MIC (S. aureus SA0736 [13]; SA0736, selecting agent DAP, passage 40W (white colonies)) | MIC (S. aureus SA0736 [13]; SA0736, selecting agent DAP, passage 40Y (yellow colonies)) | MIC values (S. aureus SA0736 [13]; Table S1: SA0736 DAP-W (40 passages on daptomycin, white colonies)) | MIC values (S. aureus SA0736 [13]; Table S1: SA0736 DAP-Y (40 passages on daptomycin, yellow colonies))
1 µg/mL: MIC (S. aureus SA0085 [2]; SA0085, selecting agent DAP, passage 5) | MIC (S. aureus SA0085 [2]; SA0085, selecting agent VAN, passage 0) | MIC values (S. aureus SA0085 [2]; Table S1: SA0085 Abf (passages on antibiotic-free media)) | MIC (S. aureus SA0085 [2]; Table S4: SA0085, strain before selection) | MIC (S. aureus SA0422 [9]; SA0422, selecting agent DAP, passage 5) | MIC (S. aureus SA0422 [9]; SA0422, selecting agent VAN, passage 0) | MIC (S. aureus SA0422 [9]; Table S4: SA0422, strain before selection) | MIC (S. aureus SA0077 [11]; SA0077, selecting agent VAN, passage 0) | MIC values (S. aureus SA0077 [11]; Table S1: SA0077 Abf (passages on antibiotic-free media)) | MIC (S. aureus SA0077 [11]; Table S4: SA0077, strain before selection) | MIC (S. aureus ATCC 29213 [12]; ATCC 29213, selecting agent DAP, passage 5)
0.4–1.0: PAP AUC ratio ([14]; after daptomycin selection)
0.25 µg/mL: MIC (S. aureus ATCC 29213 [12]; ATCC 29213, selecting agent VAN, passage 0) | MIC (S. aureus ATCC 29213 [12]; ATCC 29213, selecting agent VAN, passage 5) | MIC (S. aureus ATCC 29213 [12]; Table S4: ATCC 29213, strain before selection)
8 µg/mL: MIC (S. aureus SA0085 [2]; SA0085, selecting agent VAN, passage 40) | MIC (S. aureus SA0077 [11]; SA0077, selecting agent VAN, passage 20) | MIC (S. aureus SA0077 [11]; SA0077, selecting agent VAN, passage 40) | MIC (S. aureus ATCC 29213 [12]; ATCC 29213, selecting agent VAN, passage 40) | MIC (S. aureus SA0736 [13]; SA0736, selecting agent VAN, passage 20) | MIC (S. aureus SA0736 [13]; SA0736, selecting agent VAN, passage 40)
0.5 µg/mL: MIC values (S. aureus RN4220 [1]; Table S1: RN4220 WT) | MIC values (S. aureus RN4220 [1]; [15]) | MIC (S. aureus RN4220 [1]; Table S4: RN4220) | MIC (S. aureus SA0736 [13]; SA0736, selecting agent DAP, passage 5) | MIC (S. aureus SA0736 [13]; SA0736, selecting agent VAN, passage 0) | MIC (S. aureus SA0736 [13]; Table S4: SA0736, strain before selection)
decreased by one dilution: change of MICs after 10 passages in antibiotic-free media ([10]; vancomycin-selected derivatives, stability test)
2 µg/mL: MIC (S. aureus SA0085 [2]; SA0085, selecting agent DAP, passage 20) | MIC (S. aureus SA0422 [9]; SA0422, selecting agent DAP, passage 20) | MIC (S. aureus SA0422 [9]; SA0422, selecting agent DAP, passage 40) | MIC (S. aureus SA0422 [9]; SA0422, selecting agent VAN, passage 5) | MIC (S. aureus SA0077 [11]; SA0077, selecting agent DAP, passage 5) | MIC (S. aureus ATCC 29213 [12]; ATCC 29213, selecting agent DAP, passage 20) | MIC (S. aureus ATCC 29213 [12]; ATCC 29213, selecting agent VAN, passage 20)
1.0–1.2: PAP AUC ratio ([14]; after 40 passages in vancomycin)
did not change: change of MICs on deletion of SACOL1927 (yfhP) (S. aureus RN4220 [1]; S. aureus mutant strain RN4220, allele replacement)
